Assay results published in the supplement of paper PMC10307832.

How the values were obtained:
Experiment in all cases: relative viability (nuclei count vs DMSO), 5 days (fraction); higher = more cells survive
[1] = test system: A549
Outline: (§1)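 Relative viability divides the nuclei count in treated wells by that in vehicle wells. Lung cancer cell lines were seeded in 1536-well plates, dosed by pin tool the next day, and fixed and stained after 5 days in one step with final 0.05% Triton X-100, 1% formaldehyde and 1 ug/ml Hoechst. Dosing was a single drug or a fixed anchor-drug dose plus five library-drug doses (not always all listed) in √10 steps, and values are medians of duplicate plates imaged at 4×.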

[2] = test system: COR-L 105
Outline: as §1

[3] = test system: Calu-6
Outline: as §1

[4] = test system: EBC-1
Outline: as §1

[5] = test system: IA-LM
Outline: as §1

[6] = test system: LCLC-103H
Outline: as §1

[7] = test system: LK-2
Outline: as §1

[8] = test system: NCI-H1299
Outline: as §1

[9] = test system: NCI-H1355
Outline: as §1

[10] = test system: NCI-H1623
Outline: as §1

[11] = test system: NCI-H1703
Outline: as §1

[12] = test system: NCI-H520
Outline: as §1

[13] = test system: NCI-H522
Outline: as §1

CCN(CC)CCCCNc1ncc2cc(-c3cc(OC)cc(OC)c3)c(NC(=O)NC(C)(C)C)nc2n1 + COc1cc2c(Oc3ccc(NC(=O)C4(C(=O)Nc5ccc(F)cc5)CC4)cc3F)ccnc2cc1OCCCN1CCOCC1 [Foretinib] (partner 0.25 µM)
relative viability ([1]; first compound 0.01 µM): 1.07
relative viability ([1]; first compound 0.03162 µM): 0.841
relative viability ([1]; first compound 0.1 µM): 1.1
relative viability ([1]; first compound 0.3162 µM): 1.17
relative viability ([1]; first compound 1 µM): 0.758
relative viability ([2]; first compound 0.01 µM): 1.27
relative viability ([2]; first compound 0.03162 µM): 0.994
relative viability ([2]; first compound 0.1 µM): 1.23
relative viability ([2]; first compound 0.3162 µM): 0.909
relative viability ([2]; first compound 1 µM): 1.15
relative viability ([3]; first compound 0.01 µM): 0.97
relative viability ([3]; first compound 0.03162 µM): 0.994
relative viability ([3]; first compound 0.1 µM): 1.02
relative viability ([3]; first compound 0.3162 µM): 0.902
relative viability ([3]; first compound 1 µM): 0.86
relative viability ([4]; first compound 0.01 µM): 0.103
relative viability ([4]; first compound 0.03162 µM): 0.111
relative viability ([4]; first compound 0.1 µM): 0.12
relative viability ([4]; first compound 0.3162 µM): 0.104
relative viability ([4]; first compound 1 µM): 0.106
relative viability ([5]; first compound 0.01 µM): 1.19
relative viability ([5]; first compound 0.03162 µM): 1.33
relative viability ([5]; first compound 0.1 µM): 1.17
relative viability ([5]; first compound 0.3162 µM): 1.16
relative viability ([5]; first compound 1 µM): 1.23
relative viability ([6]; first compound 0.01 µM): 0.942
relative viability ([6]; first compound 0.03162 µM): 0.866
relative viability ([6]; first compound 0.1 µM): 0.858
relative viability ([6]; first compound 0.3162 µM): 0.755
relative viability ([6]; first compound 1 µM): 0.597
relative viability ([7]; first compound 0.01 µM): 1.06
relative viability ([7]; first compound 0.03162 µM): 1.13
relative viability ([7]; first compound 0.1 µM): 1.66
relative viability ([7]; first compound 0.3162 µM): 0.962
relative viability ([7]; first compound 1 µM): 0.663
relative viability ([8]; first compound 0.01 µM): 1.12
relative viability ([8]; first compound 0.03162 µM): 1.1
relative viability ([8]; first compound 0.1 µM): 1.16
relative viability ([8]; first compound 0.3162 µM): 1.08
relative viability ([8]; first compound 1 µM): 1.02
relative viability ([9]; first compound 0.01 µM): 1.01
relative viability ([9]; first compound 0.03162 µM): 0.967
relative viability ([9]; first compound 0.1 µM): 1.01
relative viability ([9]; first compound 0.3162 µM): 1.1
relative viability ([9]; first compound 1 µM): 0.991
relative viability ([10]; first compound 0.01 µM): 0.859
relative viability ([10]; first compound 0.03162 µM): 0.674
relative viability ([10]; first compound 0.1 µM): 0.876
relative viability ([10]; first compound 0.3162 µM): 0.945
relative viability ([10]; first compound 1 µM): 0.874
relative viability ([11]; first compound 0.01 µM): 0.314
relative viability ([11]; first compound 0.1 µM): 0.388
relative viability ([11]; first compound 0.3162 µM): 0.308
relative viability ([11]; first compound 1 µM): 0.373
relative viability ([12]; first compound 0.01 µM): 0.677
relative viability ([12]; first compound 0.03162 µM): 0.834
relative viability ([12]; first compound 0.1 µM): 1.15
relative viability ([12]; first compound 0.3162 µM): 0.543
relative viability ([12]; first compound 1 µM): 0.326

O=c1cc(N2CCOCC2)oc2c(-c3cccc4c3sc3ccccc34)cccc12 + N=C(N)NC(=N)NCCc1ccccc1 [Phenformin] (partner 250 µM)
relative viability ([1]; first compound 0.01 µM): 0.201
relative viability ([1]; first compound 0.03162 µM): 0.143
relative viability ([1]; first compound 0.1 µM): 0.0905
relative viability ([1]; first compound 0.3162 µM): 0.167
relative viability ([1]; first compound 1 µM): 0.183
relative viability ([2]; first compound 0.01 µM): 0.462
relative viability ([2]; first compound 0.03162 µM): 0.497
relative viability ([2]; first compound 0.1 µM): 0.607
relative viability ([2]; first compound 0.3162 µM): 0.568
relative viability ([2]; first compound 1 µM): 0.383
relative viability ([6]; first compound 0.01 µM): 0.317
relative viability ([6]; first compound 0.03162 µM): 0.31
relative viability ([6]; first compound 0.1 µM): 0.331
relative viability ([6]; first compound 0.3162 µM): 0.377
relative viability ([6]; first compound 1 µM): 0.341
relative viability ([7]; first compound 0.01 µM): 0.593
relative viability ([7]; first compound 0.03162 µM): 0.404
relative viability ([7]; first compound 0.1 µM): 0.573
relative viability ([7]; first compound 0.3162 µM): 0.38
relative viability ([7]; first compound 1 µM): 0.361
relative viability ([9]; first compound 0.01 µM): 0.45
relative viability ([9]; first compound 0.03162 µM): 0.446
relative viability ([9]; first compound 0.1 µM): 0.316
relative viability ([9]; first compound 0.3162 µM): 0.447
relative viability ([9]; first compound 1 µM): 0.42
relative viability ([10]; first compound 0.01 µM): 0.565
relative viability ([10]; first compound 0.03162 µM): 0.619
relative viability ([10]; first compound 0.1 µM): 0.324
relative viability ([10]; first compound 0.3162 µM): 0.585
relative viability ([10]; first compound 1 µM): 0.545
relative viability ([12]; first compound 0.01 µM): 0.663
relative viability ([12]; first compound 0.03162 µM): 0.555
relative viability ([12]; first compound 0.1 µM): 0.547
relative viability ([12]; first compound 0.3162 µM): 0.672
relative viability ([12]; first compound 1 µM): 0.644
relative viability ([13]; first compound 0.01 µM): 0.724
relative viability ([13]; first compound 0.03162 µM): 0.662
relative viability ([13]; first compound 0.1 µM): 0.572
relative viability ([13]; first compound 0.3162 µM): 0.621
relative viability ([13]; first compound 1 µM): 0.618

COc1nc(C)cnc1NS(=O)(=O)c1cccnc1-c1ccc(-c2nnco2)cc1 [Zibotentan] + COc1cc2c(Oc3ccc(NC(=O)C4(C(=O)Nc5ccc(F)cc5)CC4)cc3F)ccnc2cc1OCCCN1CCOCC1 [Foretinib] (partner 0.25 µM)
relative viability ([1]; first compound 0.08 µM): 1.02
relative viability ([1]; first compound 0.253 µM): 0.916
relative viability ([1]; first compound 0.8 µM): 1.1
relative viability ([1]; first compound 2.53 µM): 1.1
relative viability ([2]; first compound 0.08 µM): 1.31
relative viability ([2]; first compound 0.253 µM): 0.996
relative viability ([2]; first compound 0.8 µM): 1.1
relative viability ([2]; first compound 2.53 µM): 1.03
relative viability ([3]; first compound 0.08 µM): 0.811
relative viability ([3]; first compound 0.253 µM): 0.947
relative viability ([3]; first compound 0.8 µM): 0.849
relative viability ([3]; first compound 2.53 µM): 0.895
relative viability ([4]; first compound 0.08 µM): 0.0991
relative viability ([4]; first compound 0.253 µM): 0.0961
relative viability ([4]; first compound 0.8 µM): 0.103
relative viability ([4]; first compound 2.53 µM): 0.113
relative viability ([5]; first compound 0.08 µM): 1.06
relative viability ([5]; first compound 0.253 µM): 1.15
relative viability ([5]; first compound 0.8 µM): 1.09
relative viability ([5]; first compound 2.53 µM): 1.3
relative viability ([6]; first compound 0.08 µM): 0.928
relative viability ([6]; first compound 0.253 µM): 0.886
relative viability ([6]; first compound 0.8 µM): 0.797
relative viability ([6]; first compound 2.53 µM): 0.838
relative viability ([7]; first compound 0.08 µM): 1.37
relative viability ([7]; first compound 0.253 µM): 1.31
relative viability ([7]; first compound 0.8 µM): 0.895
relative viability ([7]; first compound 2.53 µM): 1.17
relative viability ([8]; first compound 0.08 µM): 1.11
relative viability ([8]; first compound 0.253 µM): 1.05
relative viability ([8]; first compound 0.8 µM): 1.05
relative viability ([8]; first compound 2.53 µM): 1.13
relative viability ([9]; first compound 0.08 µM): 0.988
relative viability ([9]; first compound 0.253 µM): 1.02
relative viability ([9]; first compound 0.8 µM): 0.955
relative viability ([9]; first compound 2.53 µM): 0.927
relative viability ([10]; first compound 0.08 µM): 0.84
relative viability ([10]; first compound 0.253 µM): 0.765
relative viability ([10]; first compound 0.8 µM): 0.855
relative viability ([10]; first compound 2.53 µM): 0.771
relative viability ([11]; first compound 0.08 µM): 0.422
relative viability ([11]; first compound 0.253 µM): 0.347
relative viability ([11]; first compound 0.8 µM): 0.395
relative viability ([11]; first compound 2.53 µM): 0.314
relative viability ([12]; first compound 0.08 µM): 0.811
relative viability ([12]; first compound 0.253 µM): 0.738
relative viability ([12]; first compound 0.8 µM): 0.586
relative viability ([12]; first compound 2.53 µM): 0.742
